This assay addresses T1, hGlyT-1b (Homo sapiens, UniProt P48067).
T1 sequence (P48067 1-652 isoform P48067-3): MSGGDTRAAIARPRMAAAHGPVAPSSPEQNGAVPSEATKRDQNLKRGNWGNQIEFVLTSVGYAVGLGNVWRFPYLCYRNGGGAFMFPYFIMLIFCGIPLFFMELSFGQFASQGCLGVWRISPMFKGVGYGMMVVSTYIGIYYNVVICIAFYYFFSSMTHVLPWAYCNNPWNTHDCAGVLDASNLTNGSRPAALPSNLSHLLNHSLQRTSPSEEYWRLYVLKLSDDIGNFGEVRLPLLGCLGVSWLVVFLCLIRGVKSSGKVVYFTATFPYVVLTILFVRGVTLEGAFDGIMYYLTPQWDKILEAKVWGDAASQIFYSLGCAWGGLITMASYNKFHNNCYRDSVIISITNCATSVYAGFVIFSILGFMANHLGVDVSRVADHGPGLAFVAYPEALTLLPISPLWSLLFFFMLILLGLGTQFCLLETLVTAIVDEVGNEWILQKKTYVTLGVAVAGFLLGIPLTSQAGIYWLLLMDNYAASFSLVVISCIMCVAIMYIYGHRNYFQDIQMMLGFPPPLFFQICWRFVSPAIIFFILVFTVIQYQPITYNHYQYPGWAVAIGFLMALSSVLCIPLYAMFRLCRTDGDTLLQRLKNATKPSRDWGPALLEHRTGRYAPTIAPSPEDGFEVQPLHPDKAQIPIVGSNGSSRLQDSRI
The assay is described as follows: Glycine uptake inhibition assay (hGlyT-1b), [3H]-glycine uptake in transfected CHO cells.

This is an account of results in patent US7176316B2, “Amino-piperidine derivatives” (Hoffmann-La Roche Inc., priority 2003, dated 2007).

Read-outs that look alike come from different tables or passages of the source.

A word on the IC50: it is the concentration at which inhibition is half-maximal. For `O=S(=O)(c1ccc(Cl)c(Cl)c1)N(c1ccccc1)C1CCN([C@@H]2CCCC[C@@H]2c2ccccc2)CC1` (racemic) [Example 1, (+/−)-3,4-Dichloro-N-phenyl-N-[cis-1-(2-phenyl-cyclohexyl)-piperidin-4-yl]-benzenesulfonamide], 0.048 µM corresponded to half-maximal inhibition (IC50).

As for `COc1ccc(S(=O)(=O)N(c2cccc(OC)c2)C2CCN([C@@H]3CCCC[C@@H]3c3ccccc3)CC2)cc1` (racemic) [Example 3, (+/−)-4-Methoxy-N-(3-methoxy-phenyl)-N-[cis-1-(2-phenyl-cyclohexyl)-piperidin-4-yl]-benzenesulfonamide], the IC50 worked out at 0.094 µM. On the same count and under the same terms, the value for `COc1ccc(S(=O)(=O)N(c2ccccc2)C2CCN([C@@H]3CCCC[C@@H]3c3ccccc3)CC2)cc1` (racemic) [Example 11, (+/−)-4-Methoxy-N-phenyl-N-[cis-1-(2-phenyl-cyclohexyl)-piperidin-4-yl]-benzenesulfonamide] was 0.056 µM; that for `Cc1ccc(S(=O)(=O)N(c2ccc(F)cc2)C2CCN([C@@H]3CCCC[C@@H]3c3ccccc3)CC2)cc1` (racemic) [Example 67, (+/−)-N-(4-Fluoro-phenyl)-4-methyl-N-[cis-1-(2-phenyl-cyclohexyl)-piperidin-4-yl]-benzenesulfonamide] was 0.099 µM; that for `COc1ccc(S(=O)(=O)N(c2ccc(F)cc2)C2CCN([C@@H]3CCCC[C@@H]3c3ccccc3)CC2)cc1` (racemic) [Example 69, (+/−)-N-(4-Fluoro-phenyl)-4-methoxy-N-[cis-1-(2-phenyl-cyclohexyl)-piperidin-4-yl]-benzenesulfonamide] was 0.029 µM. For `COc1ccc(S(=O)(=O)N(c2cccc(C(F)(F)F)c2)C2CCN([C@@H]3CCCC[C@@H]3c3ccccc3)CC2)cc1` (racemic) [Example 75, (+/−)-4-Methoxy-N-[cis-1-(2-phenyl-cyclohexyl)-piperidin-4-yl]-N-(3-trifluoromethyl-phenyl)-benzenesulfonamide], the IC50 was determined as 0.068 µM. Still for that read-out and setting: for `COc1ccc(S(=O)(=O)N(c2ccccc2)C2CCN([C@@H]3CCCC[C@@]3(O)c3ccccc3)CC2)cc1` (racemic) [Example 99, (+/−)-N-[cis-1-(2-Hydroxy-2-phenyl-cyclohexyl)-piperidin-4-yl]-4-methoxy-N-phenyl-benzenesulfonamide] the value was 0.028 µM; for `COc1ccc(S(=O)(=O)N(c2ccc(Cl)cc2)C2CCN([C@@H]3CCCC[C@@]3(O)c3ccccc3)CC2)cc1` (racemic) [Example 102, (+/−)-N-(4-Chloro-phenyl)-N-[cis-1-(2-Hydroxy-2-phenyl-cyclohexyl)-piperidin-4-yl]-4-methoxy-benzenesulfonamide], 0.092 µM. Consider `COc1ccc(S(=O)(=O)N(c2ccc(Cl)cc2)C2CCN([C@@H]3CCCC[C@@]3(O)c3cccnc3)CC2)cc1` (racemic) [Example 105, (+/−)-N-(4-Chloro-phenyl)-N-[cis-1-(2-hydroxy-2-pyridin-3-yl-cyclohexyl)-piperidin-4-yl]-4-methoxy-benzenesulfonamide], for which the IC50 worked out at 0.084 µM.

Compound `COc1ccc(S(=O)(=O)N(c2ccccc2)C2CCN([C@@H]3CCCC[C@@]3(O)c3ccc(Cl)cc3)CC2)cc1` (racemic) [Example 107, (+/−)-N-{cis-1-[2-(4-Chloro-phenyl)-2-hydroxy-cyclohexyl]-piperidin-4-yl}-4-methoxy-N-phenyl-benzenesulfonamide] displayed an IC50 of 0.083 µM.

In turn, `COc1ccc(S(=O)(=O)N(c2ccccc2)C2CCN([C@@H]3CCCC[C@@]3(O)c3ccc(F)cc3)CC2)cc1` (racemic) [Example 108, (+/−)-N-{cis-1-[2-(4-Fluoro-phenyl)-2-hydroxy-cyclohexyl]-piperidin-4-yl}-4-methoxy-N-phenyl-benzenesulfonamide] displayed a half-maximal inhibitory concentration (IC50) of 0.04 µM. Same read-out and setting: for `COc1ccc(S(=O)(=O)N(c2ccccc2)C2CCN([C@@H]3CCCC[C@@]3(O)c3ccncc3)CC2)cc1` (racemic) [Example 109, (+/−)-N-[cis-1-(2-Hydroxy-2-pyridin-4-yl-cyclohexyl)-piperidin-4-yl]-4-methoxy-N-phenyl-benzenesulfonamide] the value was 0.073 µM; for `COc1ccc(S(=O)(=O)N(c2ccccc2)C2CCN([C@@H]3CCCC[C@@]3(O)c3cccnc3)CC2)cc1` (racemic) [Example 110, (+/−)-N-[cis-1-(2-Hydroxy-2-pyridin-3-yl-cyclohexyl)-piperidin-4-yl]-4-methoxy-N-phenyl-benzenesulfonamide], 0.076 µM. Same read-out and setting: the value for `COc1ccc(S(=O)(=O)N(c2ccccc2)C2CCN([C@@H]3CCCC[C@@]3(O)c3ccccc3C)CC2)cc1` (racemic) [Example 111, (+/−)-N-[cis-1-(2-Hydroxy-2-o-tolyl-cyclohexyl)-piperidin-4-yl]-4-methoxy-N-phenyl-benzenesulfonamide] was 0.068 µM; that for `COc1ccc(S(=O)(=O)N(c2ccc(F)cc2)C2CCN([C@@H]3CCCC[C@@]3(O)c3ccccc3)CC2)cc1` (racemic) [Example 112, (+/−)-N-(4-Fluoro-phenyl)-N-[cis-1-(2-Hydroxy-2-phenyl-cyclohexyl)-piperidin-4-yl]-4-methoxy-benzenesulfonamide] was 0.061 µM; that for `COc1ccc(S(=O)(=O)N(c2ccc(F)cc2)C2CCN([C@@H]3CCCC[C@@]3(O)c3ccc(F)cc3)CC2)cc1` (racemic) [Example 114, (+/−)-N-(4-Fluoro-phenyl)-N-{cis-1-[2-(4-fluoro-phenyl)-2-hydroxy-cyclohexyl]-piperidin-4-yl}-4-methoxy-benzenesulfonamide] was 0.066 µM. The same measure, in the same setting: the value for `COc1ccc(S(=O)(=O)N(c2ccc(F)cc2)C2CCN([C@@H]3CCCC[C@@]3(O)c3ccncc3)CC2)cc1` (racemic) [Example 115, (+/−)-N-(4-Fluoro-phenyl)-N-[cis-1-(2-hydroxy-2-pyridin-4-yl-cyclohexyl)-piperidin-4-yl]-4-methoxy-benzenesulfonamide] was 0.071 µM; that for `COc1ccc(S(=O)(=O)N(c2cccc(C(F)(F)F)c2)C2CCN([C@@H]3CCCC[C@@]3(O)c3ccncc3)CC2)cc1` (racemic) [Example 120, (+/−)-N-[cis-1-(2-Hydroxy-2-pyridin-4-yl-cyclohexyl)-piperidin-4-yl]-4-methoxy-N-(3-trifluoromethyl-phenyl)-benzenesulfonamide] was 0.091 µM; that for `COc1ccc(S(=O)(=O)N(c2cccc(C(F)(F)F)c2)C2CCN([C@@H]3CCCC[C@@]3(O)c3cccnc3)CC2)cc1` (racemic) [Example 121, (+/−)-N-[cis-1-(2-Hydroxy-2-pyridin-3-yl-cyclohexyl)-piperidin-4-yl]-4-methoxy-N-(3-trifluoromethyl-phenyl)-benzenesulfonamide] was 0.071 µM. In the case of `COc1ccc(S(=O)(=O)N(c2cccc(OC)c2)C2CCN([C@@H]3CCCC[C@@]3(O)c3ccccc3)CC2)cc1` (racemic) [Example 123, (+/−)-N-[cis-1-(2-Hydroxy-2-phenyl-cyclohexyl)-piperidin-4-yl]-4-methoxy-N-(3-methoxy-phenyl)-benzenesulfonamide], 0.095 µM corresponded to half-maximal inhibition (IC50).

For the compound `COc1ccc(S(=O)(=O)N(c2cccc(OC)c2)C2CCN([C@@H]3CCCC[C@@]3(O)c3ccc(F)cc3)CC2)cc1` (racemic) [Example 125, (+/−)-N-{cis-1-[2-(4-Fluoro-phenyl)-2-hydroxy-cyclohexyl]-piperidin-4-yl}-4-methoxy-N-(3-methoxy-phenyl)-benzenesulfonamide], 0.096 µM corresponded to half-maximal inhibition (IC50).

`COc1ccc(S(=O)(=O)N(c2ccccc2)C2CCN([C@@H]3CCCC[C@]3(O)c3ccccc3)CC2)cc1` (racemic) [Example 159, (+/−)-N-[trans-1-(2-Hydroxy-2-phenyl-cyclohexyl)-piperidin-4-yl]-4-methoxy-N-phenyl-benzenesulfonamide] displayed an IC50 of 0.068 µM. With `COc1ccc(S(=O)(=O)N(c2ccc(F)cc2)C2CCN([C@@H]3COCC[C@@]3(O)c3ccccc3)CC2)cc1` (racemic) [Example 163, (+/−)-N-(4-Fluoro-phenyl)-N-[cis-1-(4-hydroxy-4-phenyl-tetrahydro-pyran-3-yl)-piperidin-4-yl]-4-methoxy-benzenesulfonamide], the IC50 is 0.085 µM.

In turn, `COc1ccc(S(=O)(=O)N(c2ccccc2)C2CCN([C@@H]3CCCC[C@@]3(O)c3ccccc3)CC2)cc1` [Example 100, (+)-N-[cis-1-(2-Hydroxy-2-phenyl-cyclohexyl)-piperidin-4-yl]-4-methoxy-N-phenyl-benzenesulfonamide] came in with an IC50 of 0.015 µM. Consider “(+)-4-Methoxy-N-phenyl-N-[cis-1-(2-phenyl-cyclohexyl)-piperidin-4-yl]-benzenesulfonamide [Example 96]”, for which the IC50 (read-out: IC50 (μM) at GlyT-1) turned out to be 0.049 µM.
